US12435051B2, “Dual modulator of mGluR5 and 5-HT2A receptor, and use thereof” (Vivozon Inc., priority 2020, dated 2025)
Where two headings read alike, the source gives them in different places.

Legend:
human 5-HT2AR = biological target: T1, human 5-HT2AR (Homo sapiens, UniProt P28223); assay: HTRF-based IP1 accumulation assay (5-HT2AR antagonistic effect); assay type: cell-based; conditions: HEK293 cells overexpressing human 5-HT2AR; serotonin at EC80
T1 construct: expressed in transfected cells; host or cells: HEK293
T1 sequence (P28223 whole entry): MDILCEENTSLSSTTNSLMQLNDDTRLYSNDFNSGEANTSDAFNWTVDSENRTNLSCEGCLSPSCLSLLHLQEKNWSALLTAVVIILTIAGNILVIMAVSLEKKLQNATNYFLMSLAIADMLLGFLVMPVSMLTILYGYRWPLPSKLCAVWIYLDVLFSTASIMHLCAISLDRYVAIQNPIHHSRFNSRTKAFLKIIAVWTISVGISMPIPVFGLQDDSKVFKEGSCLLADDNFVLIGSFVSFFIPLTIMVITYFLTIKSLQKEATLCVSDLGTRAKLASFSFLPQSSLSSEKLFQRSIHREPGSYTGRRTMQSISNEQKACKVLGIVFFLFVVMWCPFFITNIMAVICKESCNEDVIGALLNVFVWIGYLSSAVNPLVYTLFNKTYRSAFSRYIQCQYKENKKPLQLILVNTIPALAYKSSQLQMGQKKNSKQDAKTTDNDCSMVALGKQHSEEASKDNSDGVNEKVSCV
Method in brief: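 HEK293 cells stably overexpressing human 5-HT2AR were pre-incubated with compound (top 10 μM, serial dilutions, LiCl buffer) 10 min at room temperature, then stimulated with EC80 serotonin 30 min at 37 °C. IP1 accumulation was read by HTRF; IC50s came from activity normalized to serotonin and IP1 controls.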

mGluR5 = biological target: T2, mGluR5 (Homo sapiens, UniProt P41594); assay: Fluorescence-based Ca2+ mobilization assay; assay type: cell-based; conditions: HEK293 cells overexpressing mGluR5; L-glutamate at EC80
T2 construct: expressed in transfected cells; host or cells: HEK293
T2 sequence (P41594 21-1212): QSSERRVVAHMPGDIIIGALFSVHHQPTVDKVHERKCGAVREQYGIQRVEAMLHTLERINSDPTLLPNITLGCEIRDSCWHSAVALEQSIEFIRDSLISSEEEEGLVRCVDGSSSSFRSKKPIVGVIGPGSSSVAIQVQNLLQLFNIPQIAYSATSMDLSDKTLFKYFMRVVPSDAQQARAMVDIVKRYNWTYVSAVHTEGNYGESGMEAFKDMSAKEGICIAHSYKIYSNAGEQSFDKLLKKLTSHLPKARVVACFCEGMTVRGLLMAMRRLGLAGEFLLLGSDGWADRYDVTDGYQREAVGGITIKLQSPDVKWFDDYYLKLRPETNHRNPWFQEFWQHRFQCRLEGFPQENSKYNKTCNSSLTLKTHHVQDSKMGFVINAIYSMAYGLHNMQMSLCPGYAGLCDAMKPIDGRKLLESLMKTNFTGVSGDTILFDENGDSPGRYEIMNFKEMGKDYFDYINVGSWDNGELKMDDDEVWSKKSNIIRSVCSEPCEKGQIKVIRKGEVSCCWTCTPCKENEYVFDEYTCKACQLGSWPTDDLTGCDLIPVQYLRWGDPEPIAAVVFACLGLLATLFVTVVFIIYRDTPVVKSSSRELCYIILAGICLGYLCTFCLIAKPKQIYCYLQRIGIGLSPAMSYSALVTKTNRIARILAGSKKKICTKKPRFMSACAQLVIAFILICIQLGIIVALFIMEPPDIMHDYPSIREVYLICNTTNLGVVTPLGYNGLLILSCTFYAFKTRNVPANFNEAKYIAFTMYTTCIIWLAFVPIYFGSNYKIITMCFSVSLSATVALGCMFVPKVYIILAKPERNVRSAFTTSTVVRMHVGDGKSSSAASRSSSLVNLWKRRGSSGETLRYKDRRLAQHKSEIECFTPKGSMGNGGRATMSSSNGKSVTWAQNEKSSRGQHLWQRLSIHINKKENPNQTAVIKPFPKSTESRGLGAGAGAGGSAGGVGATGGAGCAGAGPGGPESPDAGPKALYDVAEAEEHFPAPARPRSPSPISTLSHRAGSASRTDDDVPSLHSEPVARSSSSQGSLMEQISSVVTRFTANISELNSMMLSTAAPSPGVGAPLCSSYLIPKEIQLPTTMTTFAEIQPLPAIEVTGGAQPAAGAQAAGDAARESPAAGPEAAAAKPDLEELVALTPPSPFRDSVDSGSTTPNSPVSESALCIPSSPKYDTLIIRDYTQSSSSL
Method in brief: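 HEK293 cells stably overexpressing mGluR5, dye-loaded 60 min at 37 °C, then preincubated with compound 30 min at room temperature in the dark. Ca2+ response to L-glutamate at EC80 read on FLIPR for 2 min. Signal normalised to glutamate (100%) and vehicle (0%); IC50 from % inhibition.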

[1] = test system: physical (tactile) allodynia in spinal nerve ligation model; assay: Analgesic efficacy experiment using animal model (Chung model, spinal nerve ligation); assay type: in vivo, Sprague-Dawley rats; conditions: for inhibition in vivo at 25 mg/kg: 25 mpk
Experimental: The Chung model (spinal nerve ligation model) is a representative animal model to study neuropathic pain and is widely accepted as a gold standard for an animal pain model by global pharmaceutical companies around the world.
In this experiment, male Sprague-Dawley rats (100-120 g) purchased from Koatech (Pyeongtaek-si, Gyeonggi-do) were used. Rats were kept in a room maintained at constant temperature and humidity with a 12 hour light-dark cycle. Rats were allowed to eat and drink freely during the experiment.
For the Chung surgery, rats were anesthetized by isoflurane inhalation and the left lumbar nerves L5 and L6 were tightly tied with a suture thread (6-0 silk thread) at the end of the dorsal ganglion and at a front of an entrance to the sciatic nerve according to the article (Kim and Chung (1992), Pain 50(3):355-63). After suturing the incision, the rats were recovered for 2 weeks in the controlled maintenance room to induce physical allodynia in the left hind paw of the rat. To measure physical (tactile) allodynia, the rats were placed in a cage with a wire mesh on the bottom. Stimuli of increasing intensity (using the von Frey filaments in a range of 0.41 to 15.8 g) were placed on the plantar surface on the side of the nerve injury. The stimulus intensity at which the pain response (abrupt lifting, licking or sucking of the foot) was induced was recorded while applying gradual increment of stimuli. As described in the study of Chaplan et al. (1994) (Chaplan et al. (1994) J. Neurosci. Methods 53(1):55-63), the paw withdrawal threshold (PWT) was determined by increasing or decreasing continuous stimulus intensity, and the result was analyzed by applying Dixon's up-down method. Only rats showing no behavior dysfunction (e.g., feet dragging or dropping) were selected and included in the study, and the PWT of the rats used was 3.16 g or less.
After measuring the degree of basic reaction before drug injection, each compound and solvent were injected by oral administration (12.5-100 mg/kg), and the measurement was repeated at regular time intervals (60 and 120 minutes) after the drug was injected.
The experimenter conducted the PWT measurement in a blind condition not knowing which rat was administered with which drug. The control group was administered with gabapentin (65 mg/kg, intraperitoneal administration), and was randomly mixed during the measurement. Statistical analysis was performed on the measured pain response threshold by calculating the reversal rate (% reversal) from pain in Equation 1 below. […] Pain reversal rate (% reversal)=[(PWT after drug administration)−(PWT before drug administration)]*100/[(15 g, Estimated PWT in normal animals)−(PWT before drug administration)] [Equation 1]
The PWT used in this time is a value obtained by multiplying the gram, the unit of “force” measure, by 10,000, and taking the logarithm, which is a method generally used in academia.
Each experiment consisted of the compound group, the solvent group of the compound and the gabapentin (GBP) group as positive control group. As solvent of the compound, 0.5% HPMC (hydroxypropylmethyl cellulose) was used.

[2] = rat, oral, 50 mpk, 1 h, read-out: % reversal (1 h)
[3] = rat, oral, 50 mpk, 2 h, read-out: % reversal (2 h)
[4] = rat, oral, 100 mpk, 1 h, read-out: % reversal (1 h)
[5] = rat, oral, 100 mpk, 2 h, read-out: % reversal (2 h)
[6] = rat, oral, 1 h, read-out: % reversal (1 h)
[7] = rat, oral, 2 h, read-out: % reversal (2 h)
[8] = Rattus norvegicus, po, 1 h, read-out: % reversal (1 h)
[9] = Rattus norvegicus, po, 2 h, read-out: % reversal (2 h)

Structure (SMILES)	IC50 (human 5-HT2AR) [nM]	IC50 (mGluR5) [nM]	inhibition in vivo at 50 mg/kg [1, 2] [%]	inhibition in vivo at 50 mg/kg [1, 3] [%]	inhibition in vivo at 100 mg/kg [1, 4] [%]	inhibition in vivo at 100 mg/kg [1, 5] [%]	further results
O=C(NCC1CCOCC1)c1ccc(C#Cc2ccccc2F)cc1 [Example 27, 4-((2-fluorophenyl)ethynyl)-N-((tetrahydro-2H-pyran-4-yl)methyl)benzamide]	100 to 500	< 100	70.3	66.3	–	–	–
O=C(NCC1(CO)CCCCC1)c1ccc(C#Cc2ccccc2F)cc1 [Example 37, 4-((2-fluorophenyl)ethynyl)-N-((1-(hydroxymethyl)cyclohexyl)methyl)benzamide]	100 to 500	< 100	–	–	37.1	18.8	–
O=C(NCC1CCC(F)(F)CC1)c1ccc(C#Cc2ccccc2F)cc1 [Example 39, N-((4,4-difluorocyclohexyl)methyl)-4-((2-fluorophenyl)ethynyl)benzamide]	< 100	< 100	–	–	–	–	inhibition in vivo at 100 mg/kg [1, 8]: 25.4%; inhibition in vivo at 100 mg/kg [1, 9]: 33.5%
O=C(NCC1CCCOC1)c1ccc(C#Cc2ccccc2F)cc1 (centres unmarked) [Example 40, 4-((2-fluorophenyl)ethynyl)-N-((tetrahydro-2H-pyran-3-yl)methyl)benzamide]	100 to 500	< 100	103	111	–	–	–
CC(NC(=O)c1ccc(C#Cc2ccccc2F)cc1)C1CCOCC1 (centres unmarked) [Example 42, 4-((2-fluorophenyl)ethynyl)-N-(1-(tetrahydro-2H-pyran-4-yl)ethyl)benzamide]	100 to 500	< 100	–	–	82.9	88.1	–
O=C(NCC1CCOC1)c1ccc(C#Cc2ccccc2F)cc1 (centres unmarked) [Example 43, 4-((2-fluorophenyl)ethynyl)-N-((tetrahydrofuran-3-yl)methyl)benzamide]	100 to 500	< 100	72.9	90.8	–	–	–
O=C(NC[C@H]1CCCO1)c1ccc(C#Cc2ccccc2F)cc1 [Example 45, (R)-4-((2-fluorophenyl)ethynyl)-N-((tetrahydrofuran-2-yl)methyl)benzamide]	100 to 500	< 100	77.7	50.6	–	–	–
O=C(NC[C@@H]1CCCO1)c1ccc(C#Cc2ccccc2F)cc1 [Example 46, (S)-4-((2-fluorophenyl)ethynyl)-N-((tetrahydrofuran-2-yl)methyl)benzamide]	100 to 500	100 to 500	–	–	73	99.8	–
O=C(NCC1CCOCC1)c1ccc(C#Cc2ccccc2)cc1 [Example 49, 4-(phenylethynyl)-N-((tetrahydro-2H-pyran-4-yl)methyl)benzamide]	100 to 500	< 100	–	–	–	–	inhibition in vivo at 25 mg/kg [1, 6]: 28.5%; inhibition in vivo at 25 mg/kg [1, 7]: 22%
O=C(NCC1COCCO1)c1ccc(C#Cc2ccccc2F)cc1 (centres unmarked) [Example 51, N-((1,4-dioxan-2-yl)methyl)-4-((2-fluorophenyl)ethynyl)benzamide]	100 to 500	< 100	5.97	14.5	–	–	–
CC1(CNC(=O)c2ccc(C#Cc3ccccc3F)cc2)COC1 [Example 52, 4-((2-fluorophenyl)ethynyl)-N-((3-methyloxetan-3-yl)methyl)benzamide]	100 to 500	< 100	–	–	90.8	101	–
O=C(NCC1CC(F)(F)C1)c1ccc(C#Cc2ccccc2F)cc1 [Example 56, N-((3,3-difluorocyclobutyl)methyl)-4-((2-fluorophenyl)ethynyl)benzamide]	100 to 500	< 100	–	–	–	–	inhibition in vivo at 50 mg/kg [1, 8]: 47.4%; inhibition in vivo at 50 mg/kg [1, 9]: 43.6%

Further lines, with some results ahead:

IC50 (human 5-HT2AR) [nM]	IC50 (mGluR5) [nM]	Structure (SMILES)	inhibition in vivo at 50 mg/kg [1, 2] [%]	inhibition in vivo at 50 mg/kg [1, 3] [%]	inhibition in vivo at 100 mg/kg [1, 4] [%]	inhibition in vivo at 100 mg/kg [1, 5] [%]	further results
100 to 500	100 to 500	O=C(NCC1(NC2CC2)CCC1)c1ccc(C#Cc2ccncc2)cc1 [Example 5, N-((1-(cyclopropylamino)cyclobutyl)methyl)-4-(pyridin-4-ylethynyl)benzamide]	43.1	34.4	–	–	–
< 100	100 to 500	O=C(NCC1(NC2CC2)CCC1)c1ccc(C#Cc2ccccc2F)cc1 [Example 9, N-((1-(cyclopropylamino)cyclobutyl)methyl)-4-((2-fluorophenyl)ethynyl)benzamide]	–	–	64	59.6	–
100 to 500	100 to 500	O=C(NCC1(NC2CC2)CCC1)c1ccc(C#Cc2ccncc2)cc1F [Example 10, N-((1-(cyclopropylamino)cyclobutyl)methyl)-2-fluoro-4-(pyridin-4-ylethynyl)benzamide]	44.9	36.1	–	–	–
< 100	100 to 500	O=C(NCC1(NC2CC2)CCCC1)c1ccc(C#Cc2ccccc2F)cc1 [Example 11, N-((1-(cyclopropylamino)cyclopentyl)methyl)-4-((2-fluorophenyl)ethynyl)benzamide]	–	–	58.7	57.4	–
100 to 500	100 to 500	O=C(NCC1(NC2CC2)CCCCCC1)c1ccc(C#Cc2ccccc2F)cc1 [Example 12, N-((1-(cyclopropylamino)cycloheptyl)methyl)-4-((2-fluorophenyl)ethynyl)benzamide]	–	–	53.8	74.8	–
100 to 500	500 to 1000	O=C(NCC1(NC2CC2)CCCCCC1)c1ccc(C#Cc2ccncc2F)cc1 [Example 16, N-((1-(cyclopropylamino)cycloheptyl)methyl)-4-((3-fluoropyridin-4-yl)ethynyl)benzamide]	61	95.8	–	–	–
< 100	500 to 1000	O=C(NCC1(NC2CC2)CCCCC1)c1ccc(C#Cc2ccccc2F)cc1 [Example 20, N-((1-(cyclopropylamino)cyclohexyl)methyl)-4-((2-fluorophenyl)ethynyl)benzamide]	–	–	35	67	–
< 100	100 to 500	O=C(NCC1(NC2CC2)CCOCC1)c1ccc(C#Cc2ccccc2F)cc1 [Example 22, N-((4-(cyclopropylamino)tetrahydro-2H-pyran-4-yl)methyl)-4-((2-fluorophenyl)ethynyl)benzamide]	19.3	77.5	–	–	–
< 100	100 to 500	CC(C)NC1(CNC(=O)c2ccc(C#Cc3ccccc3F)cc2)CCCCC1 [Example 25, 4-((2-fluorophenyl)ethynyl)-N-((1-(isopropylamino)cyclohexyl)methyl)benzamide]	–	–	–	–	inhibition in vivo at 25 mg/kg [1, 6]: 36.5%; inhibition in vivo at 25 mg/kg [1, 7]: 36.6%
< 100	500 to 1000	O=C(NCC1CCOCC1)c1ccc(C#Cc2ccc(F)cc2F)cc1 [Example 44, 4-((2,4-difluorophenyl)ethynyl)-N-((tetrahydro-2H-pyran-4-yl)methyl)benzamide]	3.45	9.13	–	–	–
< 100	1000 to 2000	CC(C)NC1(CNC(=O)c2ccc(C#Cc3ccccc3)cc2)CCCCC1 [Example 55, N-((1-(isopropylamino)cyclohexyl)methyl)-4-(phenylethynyl)benzamide]	–	–	68.9	80.2	–
